For this test, the target named is T1, human renal renin (Homo sapiens, UniProt P00797).
T1 construct: human renal renin, free from acid proteolytic activity; from tissue
T1 sequence (P00797 67-406): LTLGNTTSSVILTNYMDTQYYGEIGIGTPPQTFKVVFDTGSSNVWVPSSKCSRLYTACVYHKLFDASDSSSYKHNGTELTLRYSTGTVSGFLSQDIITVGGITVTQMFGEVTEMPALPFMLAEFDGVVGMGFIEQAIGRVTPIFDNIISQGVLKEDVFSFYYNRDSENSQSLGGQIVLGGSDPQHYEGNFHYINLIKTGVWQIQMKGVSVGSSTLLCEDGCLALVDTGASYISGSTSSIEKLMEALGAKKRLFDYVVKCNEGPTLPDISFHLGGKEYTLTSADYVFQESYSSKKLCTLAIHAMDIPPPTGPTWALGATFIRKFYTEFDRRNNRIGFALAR
Description: Inhibition of human renal renin in vitro; angiotensin I formed measured by radioimmunoassay. The test is classed as biochemical.

The structures appear in SMILES notation.

One may read the IC50 as the concentration that gives 50% inhibition. In turn, `COc1ccc(C[C@H](NC(=O)CCCCC(N)C(=O)O)C(=O)N[C@@H](CC(C)C)C(=O)N[C@@H](CC2CCCCC2)[C@@H](O)[C@@H](O)CC(C)C)cc1` (stereo partly drawn) [Example 194, 6-Amino-6-carboxyhexanoyl-(4-OMe)Phe-Leu Amide of 2(S)-Amino-l-cyclohexyl-3(R),4(S)-dihydroxy-6-methylheptane] gave an IC50 of 2.3 nM.

`COCCOCOCCN(C)C(=O)C[C@@H](Cc1ccccc1)C(=O)N[C@@H](Cc1c[nH]cn1)C(=O)N[C@@H](CC1CCCCC1)[C@@H](O)[C@@H](O)CC(C)C` [Example 214, (2R)-2-Benzyl-3-(N-methyl-N-2-methoxyethoxymethoxyethylamino-carbonyl)propionyl-His Amide of 2(S)-Amino-l-cyclohexyl-3(R),4(S)-dihydroxy-6-methylheptane] gave a 50% inhibitory concentration (IC50) of 0.24 nM.
